What follows are compounds tested against T1, hSTING (Homo sapiens, UniProt Q86WV6, G230A/H232R/R293Q/R71H) (assay: STING reporter assay (luciferase) in THP1-Dual KO-IFNAR2 cells stimulated with 2′3′cGAMP). Settings: 2′3′cGAMP 15 μM, 24 h, class symbols.
T1 construct: host or cells: THP1-Dual KO-IFNAR2 cells
Format: cell-based
Experimental: STING pathway activation by the compounds described herein was measured using THP1-Dual™ cells (KO-IFNAR2).
THP1-Dual™ KO-IFNAR2 Cells (obtained from invivogen) were maintained in RPMI, 10% FCS, 5 ml P/S, 2 mM L-glut, 10 mM Hepes, and 1 mM sodium pyruvate. Compounds were spotted in empty 384 well tissue culture plates (Greiner 781182) by Echo for a final concentration of 0.0017-100 μM. Cells were plated into the TC plates at […], 2×10E6 cells/mL. For activation with STING ligand, 2′3′cGAMP (MW 718.38, obtained from Invivogen), was prepared in Optimem media.
The following solutions were prepared for each 1×384 plate: • Solution A: 2 mL Optimem with one of the following stimuli: • […] • Solution B: 2 mL Optimem with 60 μL Lipofectamine 2000->Incubate 5 min at RT
2 mL of solution A and 2 ml Solution B was mixed and incubated for 20 min at room temperature (RT). 20 uL of transfection solution (A+B) was added on top of the plated cells, with a final 2′3′cGAMP concentration of 15 μM. The plates were then centrifuged immediately at 340 g for 1 minute, after which they were incubated at 37° C., 5% CO2, >98% humidity for 24 h. Luciferase reporter activity was then measured. EC50 values were calculated by using standard methods known in the art.
Luciferase reporter assay: 10 μL of supernatant from the assay was transferred to white 384-plate with flat bottom and squared wells. One pouch of QUANTI-Luc™ Plus was dissolved in 25 mL of water. 100 μL of QLC Stabilizer per 25 mL of QUANTI-Luc™ Plus solution was added. 50 μL of QUANTI-Luc™ Plus/QLC solution per well was then added. Luminescence was measured on a Platereader (e.g., Spectramax I3X (Molecular Devices GF3637001)).
Luciferase reporter activity was then measured. EC50 values were calculated by using standard methods known in the art.

T1 sequence (Q86WV6 whole entry R71H/G230A/H232R/R293Q): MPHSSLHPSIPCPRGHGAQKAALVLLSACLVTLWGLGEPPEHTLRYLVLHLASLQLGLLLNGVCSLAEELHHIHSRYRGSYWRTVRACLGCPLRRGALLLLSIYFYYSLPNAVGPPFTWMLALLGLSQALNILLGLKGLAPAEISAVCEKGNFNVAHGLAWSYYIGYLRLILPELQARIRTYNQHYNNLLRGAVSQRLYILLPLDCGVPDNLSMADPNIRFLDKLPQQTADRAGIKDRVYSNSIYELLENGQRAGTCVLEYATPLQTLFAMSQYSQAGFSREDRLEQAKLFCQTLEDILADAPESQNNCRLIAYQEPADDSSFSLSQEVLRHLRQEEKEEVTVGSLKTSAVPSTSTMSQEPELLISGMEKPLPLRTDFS

Row | Compound | EC50 [nM]
1 | Cc1cc(NC(=O)Nc2c[nH]c3c(F)cncc23)cnc1N1CCC(F)(F)CC1 [Compound 172, 1-(6-(4,4-difluoropiperidin-1-yl)-5-methylpyridin-3-yl)-3-(7-fluoro-1H-pyrrolo[3,2-c]pyridin-3-yl)urea] | 1000 to 5000
2 | O=C(Nc1cc(Cl)c(C2CCC(F)(F)CC2)cn1)Nc1c[nH]c2ncc(F)cc12 [Compound 152, 1-(4-chloro-5-(4,4-difluorocyclohexyl)pyridin-2-yl)-3-(5-fluoro-1H-pyrrolo[2,3-b]pyridin-3-yl)urea] | 40 to 200
3 | O=C(Nc1ccc(NC2CCC2)nc1)Nc1c[nH]c2ncc(F)cc12 [Compound 112, 1-(6-(cyclobutylamino)pyridin-3-yl)-3-(5-fluoro-1H-pyrrolo[2,3-b]pyridin-3-yl)urea] | 1000 to 5000
4 | COCCOc1ccc2[nH]cc(NC(=O)Nc3cnc(C4CCC(F)(F)CC4)c(Cl)c3)c2n1 [Compound 211, 1-(5-chloro-6-(4,4-difluorocyclohexyl)pyridin-3-yl)-3-(5-(2-methoxyethoxy)-1H-pyrrolo[3,2-b]pyridin-3-yl)urea] | 200 to 1000
5 | N#Cc1cc(NC(=O)Nc2c[nH]c3ncc(F)cc23)ccc1C1CCC(F)(F)CC1 [Compound 195, 1-(3-cyano-4-(4,4-difluorocyclohexyl)phenyl)-3-(5-fluoro-1H-pyrrolo[2,3-b]pyridin-3-yl)urea] | 40 to 200
6 | CC1(C)CN(c2ncc(NC(=O)Nc3c[nH]c4cccnc34)cc2Cl)CCO1 [Compound 241, 1-(5-chloro-6-(2,2-dimethylmorpholino)pyridin-3-yl)-3-(1H-pyrrolo[3,2-b]pyridin-3-yl)urea] | 5000 to 100000
7 | N#Cc1cc(NC(=O)Nc2c[nH]c3ncc(F)cc23)cnc1C1CCC(F)(F)CC1 [Compound 155, 1-(5-cyano-6-(4,4-difluorocyclohexyl)pyridin-3-yl)-3-(5-fluoro-1H-pyrrolo[2,3-b]pyridin-3-yl)urea] | 40 to 200
8 | O=C(Nc1ccc(C2CC(F)(F)C2)c(Cl)c1)Nc1c[nH]c2cccnc12 [Compound 219, 1-(3-chloro-4-(3,3-difluorocyclobutyl)phenyl)-3-(1H-pyrrolo[3,2-b]pyridin-3-yl)urea] | 200 to 1000
9 | COc1ccc2[nH]cc(NC(=O)Nc3cnc(C4CCC(F)(F)CC4)c(C)c3)c2n1 [Compound 169, 1-(6-(4,4-difluorocyclohexyl)-5-methylpyridin-3-yl)-3-(5-methoxy-1H-pyrrolo[3,2-b]pyridin-3-yl)urea] | 200 to 1000
10 | CN(C)c1ccc2[nH]cc(NC(=O)Nc3cnc(N4CCC(F)(F)CC4)c(F)c3)c2n1 [Compound 175, 1-(6-(4,4-difluoropiperidin-1-yl)-5-fluoropyridin-3-yl)-3-(5-(dimethylamino)-1H-pyrrolo[3,2-b]pyridin-3-yl)urea] | 5000 to 100000
11 | O=C(Nc1ccc(C2CCC(F)(F)CC2)nc1)Nc1c[nH]c2ncc(Cl)cc12 [Compound 108, 1-(5-chloro-1H-pyrrolo[2,3-b]pyridin-3-yl)-3-(6-(4,4-difluorocyclohexyl)pyridin-3-yl)urea] | 200 to 1000
12 | CN(C(=O)OC(C)(C)C)C1CC(n2cc(NC(=O)Nc3ccc(C4CCC(F)(F)CC4)nc3)c3cc(F)cnc32)C1 (stereo not shown) [Compound 101, tert-butyl (3-(3-(3-(6-(4,4-difluorocyclohexyl)pyridin-3-yl)ureido)-5-fluoro-1H-pyrrolo[2,3-b]pyridin-1-yl)cyclobutyl)(methyl)carbamate] | 5000 to 100000
13 | CC(C)(C)OC(=O)N1CCCC(n2cc(NC(=O)Nc3ccc(C4CCC(F)(F)CC4)nc3)c3cc(F)cnc32)C1 (stereo not shown) [Compound 102, tert-butyl 3-(3-(3-(6-(4,4-difluorocyclohexyl)pyridin-3-yl)ureido)-5-fluoro-1H-pyrrolo[2,3-b]pyridin-1-yl)piperidine-1-carboxylate] | 5000 to 100000
14 | O=C(Nc1cnc(OC2CCC2)c(F)c1)Nc1c[nH]c2ncc(F)cc12 [Compound 111, 1-(6-cyclobutoxy-5-fluoropyridin-3-yl)-3-(5-fluoro-1H-pyrrolo[2,3-b]pyridin-3-yl)urea] | 200 to 1000
15 | COc1cnc2[nH]cc(NC(=O)Nc3cnc(C4CCC(F)(F)CC4)c(C)c3)c2c1 [Compound 174, 1-(6-(4,4-difluorocyclohexyl)-5-methylpyridin-3-yl)-3-(5-methoxy-1H-pyrrolo[2,3-b]pyridin-3-yl)urea] | 1000 to 5000
16 | COc1ccc2[nH]cc(NC(=O)Nc3cnc(C4CCC(F)(F)CC4)c(F)c3)c2n1 [Compound 229, 1-(6-(4,4-difluorocyclohexyl)-5-fluoropyridin-3-yl)-3-(5-methoxy-1H-pyrrolo[3,2-b]pyridin-3-yl)urea] | 200 to 1000
17 | CC(C)(C)OC(=O)N1CCC(n2cc(NC(=O)Nc3ccc(C4CCC(F)(F)CC4)nc3)c3cc(F)cnc32)CC1 [Compound 103, tert-butyl 4-(3-(3-(6-(4,4-difluorocyclohexyl)pyridin-3-yl)ureido)-5-fluoro-1H-pyrrolo[2,3-b]pyridin-1-yl)piperidine-1-carboxylate] | 5000 to 100000
18 | O=C(Nc1cnc(N2CC3(CN(CC(F)(F)F)C3)C2)c(Cl)c1)Nc1c[nH]c2cccnc12 [Compound 224, 1-(5-chloro-6-(6-(2,2,2-trifluoroethyl)-2,6-diazaspiro[3.3]heptan-2-yl)pyridin-3-yl)-3-(1H-pyrrolo[3,2-b]pyridin-3-yl)urea] | 5000 to 100000
19 | O=C(Nc1cnc(N2CCC3(CCCCO3)CC2)c(Cl)c1)Nc1c[nH]c2cccnc12 [Compound 215, 1-(5-chloro-6-(1-oxa-9-azaspiro[5.5]undecan-9-yl)pyridin-3-yl)-3-(1H-pyrrolo[3,2-b]pyridin-3-yl)urea] | 1000 to 5000
20 | O=C(Nc1ccc(C2CCC(F)(F)CC2)nc1)Nc1cn(C(=O)c2ccccc2)c2ncc(F)cc12 [Compound 121, 1-(1-benzoyl-5-fluoro-1H-pyrrolo[2,3-b]pyridin-3-yl)-3-(6-(4,4-difluorocyclohexyl)pyridin-3-yl)urea] | 200 to 1000
21 | O=C(Nc1cnc(N2CCC(F)(F)CC2)nc1)Nc1c[nH]c2ncc(F)cc12 [Compound 190, 1-(2-(4,4-difluoropiperidin-1-yl)pyrimidin-5-yl)-3-(5-fluoro-1H-pyrrolo[2,3-b]pyridin-3-yl)urea] | 200 to 1000
22 | O=C(Nc1cnc(C2CCC(F)(F)CC2)c(Cl)c1)Nc1c[nH]c2ncc(F)cc12 [Compound 199, 1-(5-chloro-6-(4,4-difluorocyclohexyl)pyridin-3-yl)-3-(5-fluoro-1H-pyrrolo[2,3-b]pyridin-3-yl)urea] | 200 to 1000
23 | O=C(Nc1ccc(C2CC(F)(F)C2)c(F)c1)Nc1c[nH]c2cccnc12 [Compound 239, 1-(4-(3,3-difluorocyclobutyl)-3-fluorophenyl)-3-(1H-pyrrolo[3,2-b]pyridin-3-yl)urea] | 200 to 1000
24 | COc1ccc2[nH]cc(NC(=O)Nc3ccc(C4CC(F)(F)C4)c(F)c3)c2n1 [Compound 238, 1-(4-(3,3-difluorocyclobutyl)-3-fluorophenyl)-3-(5-methoxy-1H-pyrrolo[3,2-b]pyridin-3-yl)urea] | 200 to 1000
25 | O=C(Nc1ccc(C2CCCC2)nc1)Nc1c[nH]c2ncc(F)cc12 [Compound 109, 1-(6-cyclopentylpyridin-3-yl)-3-(5-fluoro-1H-pyrrolo[2,3-b]pyridin-3-yl)urea] | 200 to 1000
26 | O=C(Nc1ccc(N2CCC(F)(F)CC2)nn1)Nc1c[nH]c2ncc(F)cc12 [Compound 193, 1-(6-(4,4-difluoropiperidin-1-yl)pyridazin-3-yl)-3-(5-fluoro-1H-pyrrolo[2,3-b]pyridin-3-yl)urea] | 5000 to 100000
27 | Cc1cnc2[nH]cc(NC(=O)Nc3ccc(C4CCC(F)(F)CC4)nc3)c2c1 [Compound 106, 1-(6-(4,4-difluorocyclohexyl)pyridin-3-yl)-3-(5-methyl-1H-pyrrolo[2,3-b]pyridin-3-yl)urea] | 1000 to 5000
28 | COCCOc1ccc2[nH]cc(NC(=O)Nc3cnc(N4CCC(F)(F)CC4)c(Cl)c3)c2n1 [Compound 218, 1-(5-chloro-6-(4,4-difluoropiperidin-1-yl)pyridin-3-yl)-3-(5-(2-methoxyethoxy)-1H-pyrrolo[3,2-b]pyridin-3-yl)urea] | 200 to 1000
29 | Cc1cc(NC(=O)Nc2c[nH]c3cccnc23)cnc1C1CCC(F)(F)CC1 [Compound 136, 1-(6-(4,4-difluorocyclohexyl)-5-methylpyridin-3-yl)-3-(1H-pyrrolo[3,2-b]pyridin-3-yl)urea] | 5000 to 100000

Same assay, conditions: 2′3′cGAMP 15 μM, 24 h, numeric bounds

Row | Compound | EC50 [nM]
30 | O=C(Nc1cnc(N2CC(F)(F)C2)c(Cl)c1)Nc1c[nH]c2cccnc12 [Compound 242, 1-(5-chloro-6-(3,3-difluoroazetidin-1-yl)pyridin-3-yl)-3-(1H-pyrrolo[3,2-b]pyridin-3-yl)urea] | > 10000
31 | CS(=O)(=O)n1cc(NC(=O)Nc2ccc(C3CCC(F)(F)CC3)nc2)c2cc(F)cnc21 [Compound 197, 1-(6-(4,4-difluorocyclohexyl)pyridin-3-yl)-3-(5-fluoro-1-(methylsulfonyl)-1H-pyrrolo[2,3-b]pyridin-3-yl)urea] | > 30000
